Experimental data: the supplement of paper PMC8612539
In brackets after ≈: the same amount, converted by molar mass.

System: Escherichia coli
Test: minimum inhibitory concentration (MIC)
Protocol: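 Broth microdilution MIC (Sensititre BOPO7F bovine plate, CLSI methods) of 19 antimicrobials against field isolates of P. multocida, M. haemolytica, H. somni (deep nasopharyngeal swabs) and E. coli, Enterococcus spp. (rectal swabs) from weaned dairy heifers. Incubation 16-24 h at 35 C. MIC is the lowest concentration preventing visible growth. Values with <= or > lie at the tested range limits. Trimethoprim-sulfamethoxazole is given as the trimethoprim component of a 1:19 mixture.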

CC[C@H]1OC(=O)C[C@@H](O)[C@H](C)[C@@H](O[C@@H]2O[C@H](C)[C@@H](O)[C@H](N(C)C)[C@H]2O)[C@@H](CCN2CCCCC2)C[C@@H](C)C(=O)/C=C/C(C)=C/[C@@H]1CN1CCCCC1 [Tildipirosin]
Conditions	minimum inhibitory concentration [µg/mL]
isolate (source animal id): 8	4 (≈ 5.45 µM)
isolate (source animal id): 9	16 (≈ 21.8 µM)
isolate (source animal id): 10	8 (≈ 10.9 µM)
isolate (source animal id): 11	4 (≈ 5.45 µM)
isolate (source animal id): 12	4 (≈ 5.45 µM)
isolate (source animal id): 13	4 (≈ 5.45 µM)
isolate (source animal id): 14	4 (≈ 5.45 µM)
isolate (source animal id): 15	4 (≈ 5.45 µM)
isolate (source animal id): 16	4 (≈ 5.45 µM)
isolate (source animal id): 98	4 (≈ 5.45 µM)
isolate (source animal id): 99	4 (≈ 5.45 µM)
isolate (source animal id): 100	2 (≈ 2.72 µM)
isolate (source animal id): 101	4 (≈ 5.45 µM)
isolate (source animal id): 102	4 (≈ 5.45 µM)
isolate (source animal id): 103	4 (≈ 5.45 µM)
isolate (source animal id): 104	4 (≈ 5.45 µM)
isolate (source animal id): 105	4 (≈ 5.45 µM)
isolate (source animal id): 106	16 (≈ 21.8 µM)
isolate (source animal id): 107	8 (≈ 10.9 µM)
isolate (source animal id): 108	4 (≈ 5.45 µM)
isolate (source animal id): 109	4 (≈ 5.45 µM)
isolate (source animal id): 110	4 (≈ 5.45 µM)
isolate (source animal id): 111	4 (≈ 5.45 µM)
isolate (source animal id): 112	4 (≈ 5.45 µM)
isolate (source animal id): 113	4 (≈ 5.45 µM)
isolate (source animal id): 114	4 (≈ 5.45 µM)
isolate (source animal id): 115	8 (≈ 10.9 µM)
isolate (source animal id): 116	4 (≈ 5.45 µM)
isolate (source animal id): 117	> 16
isolate (source animal id): 118	8 (≈ 10.9 µM)
isolate (source animal id): 119	8 (≈ 10.9 µM)
isolate (source animal id): 120	4 (≈ 5.45 µM)
isolate (source animal id): 121	4 (≈ 5.45 µM)
isolate (source animal id): 122	4 (≈ 5.45 µM)
isolate (source animal id): 123	4 (≈ 5.45 µM)
isolate (source animal id): 124	2 (≈ 2.72 µM)
isolate (source animal id): 125	≤ 1
isolate (source animal id): 126	4 (≈ 5.45 µM)
isolate (source animal id): 127	8 (≈ 10.9 µM)
isolate (source animal id): 128	4 (≈ 5.45 µM)
isolate (source animal id): 129	4 (≈ 5.45 µM)
isolate (source animal id): 130	4 (≈ 5.45 µM)
isolate (source animal id): 131	2 (≈ 2.72 µM)
isolate (source animal id): 132	4 (≈ 5.45 µM)
isolate (source animal id): 133	4 (≈ 5.45 µM)
isolate (source animal id): 134	4 (≈ 5.45 µM)
isolate (source animal id): 135	4 (≈ 5.45 µM)
isolate (source animal id): 136	4 (≈ 5.45 µM)
isolate (source animal id): 137	4 (≈ 5.45 µM)
isolate (source animal id): 138	4 (≈ 5.45 µM)
isolate (source animal id): 139	2 (≈ 2.72 µM)
isolate (source animal id): 140	4 (≈ 5.45 µM)
isolate (source animal id): 141	4 (≈ 5.45 µM)
isolate (source animal id): 142	4 (≈ 5.45 µM)
isolate (source animal id): 143	8 (≈ 10.9 µM)
isolate (source animal id): 144	4 (≈ 5.45 µM)
isolate (source animal id): 145	4 (≈ 5.45 µM)
isolate (source animal id): 146	8 (≈ 10.9 µM)
isolate (source animal id): 147	2 (≈ 2.72 µM)
isolate (source animal id): 148	4 (≈ 5.45 µM)
isolate (source animal id): 149	4 (≈ 5.45 µM)
isolate (source animal id): 150	4 (≈ 5.45 µM)
isolate (source animal id): 151	4 (≈ 5.45 µM)
isolate (source animal id): 152	4 (≈ 5.45 µM)
isolate (source animal id): 153	4 (≈ 5.45 µM)
isolate (source animal id): 154	4 (≈ 5.45 µM)
isolate (source animal id): 155	4 (≈ 5.45 µM)
isolate (source animal id): 156	4 (≈ 5.45 µM)
isolate (source animal id): 157	4 (≈ 5.45 µM)
isolate (source animal id): 158	4 (≈ 5.45 µM)
isolate (source animal id): 159	4 (≈ 5.45 µM)
isolate (source animal id): 160	4 (≈ 5.45 µM)
isolate (source animal id): 161	2 (≈ 2.72 µM)
isolate (source animal id): 162	4 (≈ 5.45 µM)
isolate (source animal id): 163	4 (≈ 5.45 µM)
isolate (source animal id): 164	4 (≈ 5.45 µM)
isolate (source animal id): 165	4 (≈ 5.45 µM)
isolate (source animal id): 166	4 (≈ 5.45 µM)
isolate (source animal id): 167	8 (≈ 10.9 µM)
isolate (source animal id): 168	4 (≈ 5.45 µM)
isolate (source animal id): 169	4 (≈ 5.45 µM)
isolate (source animal id): 170	4 (≈ 5.45 µM)
isolate (source animal id): 171	4 (≈ 5.45 µM)
isolate (source animal id): 172	4 (≈ 5.45 µM)
isolate (source animal id): 173	4 (≈ 5.45 µM)
isolate (source animal id): 174	4 (≈ 5.45 µM)
isolate (source animal id): 175	8 (≈ 10.9 µM)
isolate (source animal id): 176	8 (≈ 10.9 µM)
isolate (source animal id): 177	4 (≈ 5.45 µM)
isolate (source animal id): 178	4 (≈ 5.45 µM)
isolate (source animal id): 179	4 (≈ 5.45 µM)
isolate (source animal id): 180	4 (≈ 5.45 µM)
isolate (source animal id): 181	16 (≈ 21.8 µM)
isolate (source animal id): 182	8 (≈ 10.9 µM)
isolate (source animal id): 183	4 (≈ 5.45 µM)
isolate (source animal id): 184	8 (≈ 10.9 µM)
isolate (source animal id): 185	4 (≈ 5.45 µM)
isolate (source animal id): 186	4 (≈ 5.45 µM)
isolate (source animal id): 187	2 (≈ 2.72 µM)
isolate (source animal id): 188	4 (≈ 5.45 µM)

CCC[C@@H]1C[C@@H](C(=O)N[C@@H]([C@H]2O[C@H](SC)[C@H](O)[C@@H](O)[C@H]2O)[C@H](C)Cl)N(C)C1 [Clindamycin]
Conditions	minimum inhibitory concentration [µg/mL]
isolate (source animal id): 8	> 16
isolate (source animal id): 9	> 16
isolate (source animal id): 10	> 16
isolate (source animal id): 11	> 16
isolate (source animal id): 12	> 16
isolate (source animal id): 13	> 16
isolate (source animal id): 14	> 16
isolate (source animal id): 15	> 16
isolate (source animal id): 16	> 16
isolate (source animal id): 98	> 16
isolate (source animal id): 99	> 16
isolate (source animal id): 100	> 16
isolate (source animal id): 101	> 16
isolate (source animal id): 102	> 16
isolate (source animal id): 103	> 16
isolate (source animal id): 104	> 16
isolate (source animal id): 105	> 16
isolate (source animal id): 106	> 16
isolate (source animal id): 107	> 16
isolate (source animal id): 108	> 16
isolate (source animal id): 109	> 16
isolate (source animal id): 110	> 16
isolate (source animal id): 111	> 16
isolate (source animal id): 112	> 16
isolate (source animal id): 113	> 16
isolate (source animal id): 114	> 16
isolate (source animal id): 115	> 16
isolate (source animal id): 116	> 16
isolate (source animal id): 117	> 16
isolate (source animal id): 118	> 16
isolate (source animal id): 119	> 16
isolate (source animal id): 120	> 16
isolate (source animal id): 121	> 16
isolate (source animal id): 122	> 16
isolate (source animal id): 123	> 16
isolate (source animal id): 124	> 16
isolate (source animal id): 125	> 16
isolate (source animal id): 126	> 16
isolate (source animal id): 127	> 16
isolate (source animal id): 128	> 16
isolate (source animal id): 129	> 16
isolate (source animal id): 130	> 16
isolate (source animal id): 131	> 16
isolate (source animal id): 132	> 16
isolate (source animal id): 133	> 16
isolate (source animal id): 134	> 16
isolate (source animal id): 135	> 16
isolate (source animal id): 136	> 16
isolate (source animal id): 137	> 16
isolate (source animal id): 138	> 16
isolate (source animal id): 139	> 16
isolate (source animal id): 140	> 16
isolate (source animal id): 141	> 16
isolate (source animal id): 142	> 16
isolate (source animal id): 143	> 16
isolate (source animal id): 144	> 16
isolate (source animal id): 145	> 16
isolate (source animal id): 146	> 16
isolate (source animal id): 147	> 16
isolate (source animal id): 148	> 16
isolate (source animal id): 149	> 16
isolate (source animal id): 150	> 16
isolate (source animal id): 151	> 16
isolate (source animal id): 152	> 16
isolate (source animal id): 153	> 16
isolate (source animal id): 154	> 16
isolate (source animal id): 155	> 16
isolate (source animal id): 156	> 16
isolate (source animal id): 157	> 16
isolate (source animal id): 158	> 16
isolate (source animal id): 159	> 16
isolate (source animal id): 160	> 16
isolate (source animal id): 161	> 16
isolate (source animal id): 162	> 16
isolate (source animal id): 163	> 16
isolate (source animal id): 164	> 16
isolate (source animal id): 165	> 16
isolate (source animal id): 166	> 16
isolate (source animal id): 167	> 16
isolate (source animal id): 168	> 16
isolate (source animal id): 169	> 16
isolate (source animal id): 170	> 16
isolate (source animal id): 171	> 16
isolate (source animal id): 172	> 16
isolate (source animal id): 173	> 16
isolate (source animal id): 174	> 16
isolate (source animal id): 175	> 16
isolate (source animal id): 176	> 16
isolate (source animal id): 177	> 16
isolate (source animal id): 178	> 16
isolate (source animal id): 179	> 16
isolate (source animal id): 180	> 16
isolate (source animal id): 181	> 16
isolate (source animal id): 182	> 16
isolate (source animal id): 183	> 16
isolate (source animal id): 184	> 16
isolate (source animal id): 185	> 16
isolate (source animal id): 186	> 16
isolate (source animal id): 187	> 16
isolate (source animal id): 188	> 16
